Data reported in PubChem BioAssay AID256 (DTP/NCI, 2004).
Values joined by “and” are separate entries in the source; they are usually repeats but may differ in a detail not shown here. Equal values may be shown once. Toxic doses and inconclusive results are not listed. Rule for the calls: active = survival T/C of 150% or more; inactive = T/C below 125% in these data.

System: CD2F1 mice, L1210 leukemia ip, survival T/C
Test: NCI In Vivo Anticancer Drug Screen. Data for tumor model L1210 Leukemia (intraperitoneal) in CD2F1 (CDF1) mice
Conditions: higher = longer survival
How it was run: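 Read-out first: treated-group measurement over vehicle-control measurement, expressed as a ratio. Animals bore a transplanted tumor line and were dosed with compound or vehicle.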

[1] = endpoint: mean survival time, dose: 100.0 mg/kg/injection, schedule: Q01DX001 (ip), vehicle: saline with Tween-80
[2] = endpoint: mean survival time, dose: 200.0 mg/kg/injection, schedule: Q01DX001 (ip), vehicle: saline with Tween-80
[3] = endpoint: mean survival time, dose: 400.0 mg/kg/injection, schedule: Q01DX001 (ip), vehicle: saline with Tween-80
[4] = endpoint: mean survival time, dose: 25.0 mg/kg/injection, schedule: Q01DX009 (ip), vehicle: saline with Tween-80
[5] = endpoint: mean survival time, dose: 50.0 mg/kg/injection, schedule: Q01DX009 (ip), vehicle: saline with Tween-80
[6] = endpoint: mean survival time, dose: 100.0 mg/kg/injection, schedule: Q01DX009 (ip), vehicle: saline with Tween-80
[7] = endpoint: mean survival time, dose: 100.0 mg/kg/injection, schedule: Q04DX003 (ip), vehicle: saline with Tween-80
[8] = endpoint: mean survival time, dose: 200.0 mg/kg/injection, schedule: Q04DX003 (ip), vehicle: saline with Tween-80
[9] = endpoint: mean survival time, dose: 400.0 mg/kg/injection, schedule: Q04DX003 (ip), vehicle: saline with Tween-80
[10] = endpoint: mean survival time, dose: 200.0 mg/kg/injection, schedule: Q01DX009 (ip), vehicle: saline with Tween-80
[11] = endpoint: mean survival time, dose: 400.0 mg/kg/injection, schedule: Q01DX009 (ip), vehicle: saline with Tween-80
[12] = endpoint: mean survival time, dose: 12.5 mg/kg/injection, schedule: Q01DX005 (ip), vehicle: distilled water + Tween-80
[13] = endpoint: mean survival time, dose: 25.0 mg/kg/injection, schedule: Q01DX005 (ip), vehicle: distilled water + Tween-80
[14] = endpoint: mean survival time, dose: 50.0 mg/kg/injection, schedule: Q01DX005 (ip), vehicle: distilled water + Tween-80
[15] = endpoint: mean survival time, dose: 100.0 mg/kg/injection, schedule: Q01DX005 (ip), vehicle: distilled water + Tween-80
[16] = endpoint: mean survival time, dose: 200.0 mg/kg/injection, schedule: Q01DX005 (ip), vehicle: distilled water + Tween-80
[17] = endpoint: mean survival time, dose: 100.0 mg/kg/injection, schedule: Q04DX002 (ip), vehicle: saline with Tween-80
[18] = endpoint: mean survival time, dose: 200.0 mg/kg/injection, schedule: Q04DX002 (ip), vehicle: saline with Tween-80

Measured: T/C

COc1cccc2c1C(=O)c1c(O)c3c(c(O)c1C2=O)C[C@@](O)(/C(CO)=N/NC(=O)c1ccc(Cl)c(Cl)c1)C[C@@H]3OC1CC(N)C(O)C(C)O1 (some centres undefined)
inactive: endpoint: mean survival time, dose: 1.0 mg/kg/injection, schedule: Q01DX009 (ip), vehicle: water 86 % of control | endpoint: mean survival time, dose: 2.0 mg/kg/injection, schedule: Q01DX009 (ip), vehicle: water 116 % of control and 89 % of control | endpoint: mean survival time, dose: 4.0 mg/kg/injection, schedule: Q01DX009 (ip), vehicle: water 92 % of control | endpoint: mean survival time, dose: 8.0 mg/kg/injection, schedule: Q01DX009 (ip), vehicle: water 92 % of control | endpoint: mean survival time, dose: 32.0 mg/kg/injection, schedule: Q01DX009 (ip), vehicle: water 113 % of control and 111 % of control
252 % of control and 97 % of control: endpoint: mean survival time, dose: 16.0 mg/kg/injection, schedule: Q01DX009 (ip), vehicle: water

CCC1Cc2c([nH]c(=O)n(C)c2=O)O1 (centres undefined)
inactive: endpoint: mean survival time, dose: 100.0 mg/kg/injection, schedule: Q01DX001 (ip), vehicle: saline 97 % of control | endpoint: mean survival time, dose: 200.0 mg/kg/injection, schedule: Q01DX001 (ip), vehicle: saline 97 % of control | endpoint: mean survival time, dose: 400.0 mg/kg/injection, schedule: Q01DX001 (ip), vehicle: saline 97 % of control

CCC(=O)OCCNc1cc(C(N)=O)c([N+](=O)[O-])cc1[N+](=O)[O-]
inactive: [1] 105 % of control | [2] 92 % of control | [3] 97 % of control

O=P(NC12CC3CC(CC(C3)C1)C2)(N1CC1)N1CC1
inactive: endpoint: mean survival time, dose: 4.8 mg/kg/injection, schedule: Q04DX003 (ip), vehicle: Klucel (hydroxypropylcellulose) (HPC) 120 % of control | endpoint: mean survival time, dose: 9.6 mg/kg/injection, schedule: Q04DX003 (ip), vehicle: Klucel (hydroxypropylcellulose) (HPC) 120 % of control
active: endpoint: mean survival time, dose: 30.0 mg/kg/injection, schedule: Q04DX003 (ip), vehicle: Klucel (hydroxypropylcellulose) (HPC) 162 % of control

CCOC(=O)/C(C#N)=C(\C)c1cccc(C)c1
inactive: [4] 102 % of control | [5] 98 % of control | [6] 103 % of control | [7] 105 % of control

CCOC(=O)N1CCc2nc3cc(OC)ccc3cc21
inactive: [1] 103 % of control | [2] 98 % of control | [3] 98 % of control

O=C1CCC(=O)N1C1c2ccccc2Oc2ccccc21
inactive: endpoint: mean survival time, dose: 100.0 mg/kg/injection, schedule: Q01DX009 (ip), vehicle: saline 96 % of control | endpoint: mean survival time, dose: 200.0 mg/kg/injection, schedule: Q01DX009 (ip), vehicle: saline 91 % of control | endpoint: mean survival time, dose: 400.0 mg/kg/injection, schedule: Q01DX009 (ip), vehicle: saline 92 % of control

O=[N+]([O-])c1ccc(O)c(Cl)c1
inactive: endpoint: mean survival time, dose: 12.5 mg/kg/injection, schedule: Q01DX009 (ip), vehicle: saline with Tween-80 86 % of control | [4] 89 % of control | [5] 106 % of control and 108 % of control

CN(C)C(=O)Nc1cccc(OP(=O)(N(C)C)N(C)C)c1
inactive: [7] 103 % of control | [8] 97 % of control | [9] 99 % of control

CCOC(=O)C(=O)Cc1cc(=O)cc(C)o1
inactive: [6] 95 % of control | [10] 92 % of control | [11] 93 % of control

Nc1cc2c(ncn2C2OC(CO)C(O)C2O)c(=O)n1N (centres undefined)
inactive: [12] 96 % of control | [13] 97 % of control | [14] 105 % of control | [15] 94 % of control | [16] 94 % of control

ClC1=CCCCC1
inactive: endpoint: mean survival time, dose: 100.0 mg/kg/injection, schedule: Q04DX003 (ip), vehicle: acetone 102 % of control

CC1(CCCc2ccc(N(CCCl)CCCl)cc2)NC(=O)NC1=O (centres undefined)
inactive: endpoint: mean survival time, dose: 50.0 mg/kg/injection, schedule: Q01DX009 (ip), vehicle: Klucel (hydroxypropylcellulose) (HPC) 114 % of control | endpoint: mean survival time, dose: 100.0 mg/kg/injection, schedule: Q01DX009 (ip), vehicle: Klucel (hydroxypropylcellulose) (HPC) 93 % of control | endpoint: mean survival time, dose: 200.0 mg/kg/injection, schedule: Q01DX009 (ip), vehicle: Klucel (hydroxypropylcellulose) (HPC) 86 % of control

Cc1cc(NCCCCCCNc2cc(C)nc3cc(N(C)C)ccc23)c2ccc(N(C)C)cc2n1
active: endpoint: median survival time, dose: 25.0 mg/kg/injection, schedule: Q01DX009 (ip), vehicle: distilled water + Tween-80 + alcohol 152 % of control and 158 % of control
inactive: endpoint: median survival time, dose: 3.12 mg/kg/injection, schedule: Q01DX009 (ip), vehicle: distilled water + Tween-80 + alcohol 121 % of control

CCCCCCC(Sc1nn(C2OC(COC(=O)c3ccccc3)C(OC(=O)c3ccccc3)C2OC(=O)c2ccccc2)c(=O)[nH]c1=O)C(=O)OCC (centres undefined)
inactive: [12] 100 % of control | [13] 100 % of control | [14] 94 % of control | [15] 95 % of control | [16] 94 % of control

O=C1N(C2CCCCC2)CC2C(c3ccccc3)N(c3ccccc3)NC12O (centres undefined)
inactive: [1] 92 % of control | [6] 97 % of control | [2] 91 % of control | [10] 98 % of control | [3] 88 % of control | [11] 108 % of control

CC(CCl)C(C#N)(c1ccccc1)c1ccccc1 (centres undefined)
inactive: [5] 92 % of control | [6] 95 % of control | [7] 101 % of control | [10] 95 % of control | [8] 101 % of control

Cc1cc(C(O)CNCCCn2c(N3CCOCC3)nc3c2c(=O)n(C)c(=O)n3C)ccc1O (centres undefined)
inactive: endpoint: mean survival time, dose: 12.5 mg/kg/injection, schedule: Q01DX005 (ip), vehicle: water 96 % of control | endpoint: mean survival time, dose: 25.0 mg/kg/injection, schedule: Q01DX005 (ip), vehicle: water 97 % of control | endpoint: mean survival time, dose: 50.0 mg/kg/injection, schedule: Q01DX005 (ip), vehicle: water 97 % of control | endpoint: mean survival time, dose: 100.0 mg/kg/injection, schedule: Q01DX005 (ip), vehicle: water 96 % of control | endpoint: mean survival time, dose: 200.0 mg/kg/injection, schedule: Q01DX005 (ip), vehicle: water 100 % of control

CCC(C)(S(=O)(=O)CC)S(=O)(=O)CC
inactive: [7] 102 % of control | [8] 98 % of control | [9] 98 % of control

CN(C)C(SCc1ccccc1)=[N+](C)C
inactive: [17] 105 % of control | [18] 94 % of control

Cc1ccc(C2=C(O)C(=O)C(c3ccc(C)cc3)=C(O)C2=O)cc1
inactive: endpoint: mean survival time, dose: 75.0 mg/kg/injection, schedule: Q01DX001 (ip), vehicle: other 105 % of control | endpoint: mean survival time, dose: 150.0 mg/kg/injection, schedule: Q01DX001 (ip), vehicle: other 102 % of control

NC1=NN(c2ccccc2)CC1
inactive: endpoint: mean survival time, dose: 5.0 mg/kg/injection, schedule: Q01DX009 (ip), vehicle: saline with Tween-80 96 % of control | endpoint: mean survival time, dose: 5.0 mg/kg/injection, schedule: Q04DX003 (ip), vehicle: saline with Tween-80 94 % of control | endpoint: mean survival time, dose: 10.0 mg/kg/injection, schedule: Q01DX009 (ip), vehicle: saline with Tween-80 96 % of control | endpoint: mean survival time, dose: 10.0 mg/kg/injection, schedule: Q04DX003 (ip), vehicle: saline with Tween-80 91 % of control | endpoint: mean survival time, dose: 20.0 mg/kg/injection, schedule: Q01DX009 (ip), vehicle: saline with Tween-80 106 % of control | endpoint: mean survival time, dose: 20.0 mg/kg/injection, schedule: Q04DX003 (ip), vehicle: saline with Tween-80 86 % of control

O=S(=O)(O)c1cccc2ncccc12
inactive: endpoint: mean survival time, dose: 100.0 mg/kg/injection, schedule: Q01DX001 (ip), vehicle: Klucel (hydroxypropylcellulose) (HPC) 113 % of control | endpoint: mean survival time, dose: 200.0 mg/kg/injection, schedule: Q01DX001 (ip), vehicle: Klucel (hydroxypropylcellulose) (HPC) 92 % of control | endpoint: mean survival time, dose: 400.0 mg/kg/injection, schedule: Q01DX001 (ip), vehicle: Klucel (hydroxypropylcellulose) (HPC) 95 % of control

CCC1NC(=O)C(NC(=O)c2ncccc2O)C(C)OC(=O)C(c2ccccc2)NC(=O)C2CC(=O)CCN2C(=O)C(Cc2ccccc2)N(C)C(=O)C2CCCN2C1=O (centres undefined)
inactive: [17] 108 % of control | [18] 108 % of control

C1CCC2(CCC34CCCCC3CCCC4)CCCCC2C1 (centres undefined)
inactive: [7] 101 % of control | [8] 102 % of control | [9] 102 % of control

NOCc1cc(Cl)sc1Cl
inactive: [7] 112 % of control | [8] 121 % of control

COc1ncc(C2OC(CO)C(O)C2O)c(OC)n1 (centres undefined)
inactive: endpoint: mean survival time, dose: 25.0 mg/kg/injection, schedule: Q01DX009 (ip), vehicle: other 100 % of control | endpoint: mean survival time, dose: 50.0 mg/kg/injection, schedule: Q01DX009 (ip), vehicle: other 104 % of control | endpoint: mean survival time, dose: 100.0 mg/kg/injection, schedule: Q01DX009 (ip), vehicle: other 96 % of control | endpoint: mean survival time, dose: 200.0 mg/kg/injection, schedule: Q01DX009 (ip), vehicle: other 100 % of control | endpoint: mean survival time, dose: 400.0 mg/kg/injection, schedule: Q01DX009 (ip), vehicle: other 96 % of control
